One assay deals with T1, His6-GSK-3β (Homo sapiens, UniProt P49841).
T1 construct: made in house; host or cells: Sf21 insect cells (baculovirus)
As to the kind of experiment: Inhibition of His6-GSK-3β kinase activity (ELISA-based format, time-resolved fluorescence readout). As to conditions: read-out: GSK3β IC50. The class given is biochemical. An excerpt: Full-length GSK-3β was amplified from a sequence-verified I.M.A.G.E. EST acquired from Research Genetics (Invitrogen, Clone ID# CSODB003YJ02). The final sequence-verified cDNA contained the coding region for a NH2-terminal tag, which encoded for 6 histidines and then eight vector-encoded amino acids prior to the start of GSK3β, which contained by # 43-1342 of Genbank Accession # NM_002093, encoding amino acids #2-419. The predicted molecular weight of the tagged, 435 amino acid, full-length protein is 48.5 kDa. The major structural element of this protein is the kinase domain, which is from amino acids #56-340. Recombinant baculoviral DNA was prepared by transposition in E. coli (BAC-TO-BAC system: Invitrogen) and the virus generated and amplified in Sf21 insect cells. A suspension culture of Sf21 cells was infected at an MOI of 0.7 and cell density of 1.5×10^6 cells/mL in Excell 420 serum-free media (JRH BioScience) and harvested 65 h after infection. The 100,000×g supernatant solution was used for purification. Expression was confirmed by running samples on SDS-PAGE, followed by immunoblot analysis utilizing both a Penta-HIS antibody (Qiagen #34660) and a GSK-3α/GSK-3β antibody (Calbiochem #368662, data not shown). The His6-tagged protein was purified to in one step by Ni-NTA affinity chromatography.
Inhibitory effects of compounds on baculoviral GSK-3β kinase activity were evaluated using an ELISA-based format in a 384-well FluoroNunc Maxisorp plate (Cat # 460372) with a time-resolved fluorescence readout. Briefly, each plate was coated with 50 μl/well of 20 μg/ml substrate solution (recombinant GST-Rb) in Tris-buffered saline (TBS). The GSK-3β assay mixture (total volume=50 μl/well) consisting of 50 mM HEPES (pH 7.2), 20 μM ATP, 10 mM MgCl2, 5 mM EGTA, 25 mM β-glycerophosphate, 0.05% BSA, 2.5% DMSO, and various concentrations of test compound were then added to the assay plate. Enzyme (200 ng/ml His6-GSK-3β) was then added and the reaction was allowed to proceed at 37° C. for 30 minutes. Detection of the phosphorylated product was performed by adding 50 μl/well of phospho-Rb (Ser-780) antibody (Cell Signaling # 9307) diluted 1:10,000 in antibody dilution buffer (0.1% BSA in TBST). After 1-hour incubation at 37° C., 50 μl/well of Eu-N1 labelled anti-rabbit antibody (Wallac # AD0105; 1:50,000 in antibody dilution buffer) was added. Incubation at 37° C. then proceeded for 1 hour, followed by addition of 50 μl enhancement solution (Wallac #1244-105). The plate was gently agitated and after a few minutes, the fluorescence of the resulting solution was measured using a Multilabel Reader (Victor2 Model # 1420-018 or Envision Model 2100). Inhibition data were analyzed using ActivityBase and IC50 curves were generated using XLFit 3.0.5.
(In general: In an ELISA, binding on a coated surface is turned into a signal by an enzyme label.)

A further assay addresses T2, CDK5/GST-p25 (Homo sapiens, UniProt Q00535).
T2 construct: The final construct, encoding for full-length human CDK5; made in house; host or cells: Sf21 insect cells (baculovirus co-infection)
Nature of the assay: Inhibition of CDK5/GST-p25 kinase activity (ELISA with time-resolved fluorescence readout). The format is biochemical. As to conditions: for pIC50: class symbols. Here is the method: Two recombinant baculoviral constructs were created, one encoding for human CDK5 and the other encoding for human p25 with an amino-terminal glutathione-S-transferase (GST) tag. PCR amplification of full-length CDK5 was performed utilizing human brain cDNA as a template and Pfu Turbo polymerase (Strategene). The PCR product from this reaction was subcloned into the baculoviral expression vector pFASTBAC1 (Gibco/BRL). The final construct, encoding for full-length human CDK5 (base pairs 25-903 of GenBank Accession #NM_004935), is 292 amino acids long with a predicted MW of 33.3 kDa.
For p25, the active truncated form of p35, amino acids 108-307 were PCR-amplified from human fetal brain cDNA (Clontech QUICK-Clone cDNA) using the Advantage 2 PCR system (Clontech). The PCR product was subcloned into the baculoviral transfer vector pFBGSTP (an engineered derivative of the baculoviral transfer vector pFASTBAC1). The final baculoviral construct encodes for base pairs 419-1021 of GenBank Accession #NM_003885, with an amino-terminal GST tag. The expressed GST-p25 is 444 amino acids long with a predicted MW of 50.3 kDa.
The CDK5/GST-p25 complex was generated by coexpression. Sf21 cells were cultured in TNM-FHS media at a density of 1.5×10^6 cells/mL and infected with each recombinant virus at MOI values of 5 (for CDK5) and 10 (for GST-p25). The cells were harvested 40 h after infection. For purification, the 100,000×g supernatant solution was used. Expression was confirmed by running samples on SDS-PAGE, followed by immunoblot analysis utilizing antibodies against CDK5 (anti-CDK5 (268-283); Calbiochem #219449) and p35 (Santa Cruz #sc820). The CDK5/GST-p25 complex was purified by glutathione affinity chromatography.
Compounds were tested for their ability to inhibit the kinase activity of recombinant baculoviral CDK5/GST-p25 using an enzyme-linked immunosorbent assay (ELISA) with time-resolved fluorescence (TRF) readout. Briefly, each 384-well FluoroNunc Maxisorp plate (Cat # 460372) plate was coated with 50 μl/well of 50 μg/ml substrate solution (recombinant GST-Rb(773-928)) in Tris-buffered saline (TBS). The CDK5/GST-p25 assay mixture (total volume=50 μl/well) consisting of 20 mM HEPES (pH 7.2), 10 μM ATP, 10 mM MgCl2, 5 mM EGTA, 25 mM β-glycerophosphate, 0.05% BSA, 2.5% DMSO, and various concentrations of test compound were then added to the assay plate. Enzyme (2 ng/ml CDK5/GST-p25) was added and the reaction was allowed to proceed at 37° C. for 20 minutes. Detection of the phosphorylated product was performed by adding 50 μl/well of phospho-Rb (Ser-780) antibody (Cell Signaling # 9307) diluted 1:10,000 in antibody dilution buffer (0.1% BSA in TBST). After 1-hour incubation at 37° C., 50 μl/well of Eu-Nl labelled anti-rabbit antibody (Wallac # AD0105; 1:50,000 in antibody dilution buffer) was added. Incubation at 37° C. then proceeded for 1 hour, followed by addition of 50 μl enhancement solution (Wallac #1244-105). The plate was gently agitated and after a few minutes, the fluorescence of the resulting solution was measured using a Multilabel Reader (Victor2 Model # 1420-018 or Envision Model # 2100). Inhibition data were analyzed using ActivityBase and IC50 curves were generated using XLFit 3.0.5.

pIC50: −log10 of the molar value. Structures can show the parent of a compound that is named as a salt. Where two headings read alike, the source gives them in different places.

T2 sequence (Q00535 whole entry): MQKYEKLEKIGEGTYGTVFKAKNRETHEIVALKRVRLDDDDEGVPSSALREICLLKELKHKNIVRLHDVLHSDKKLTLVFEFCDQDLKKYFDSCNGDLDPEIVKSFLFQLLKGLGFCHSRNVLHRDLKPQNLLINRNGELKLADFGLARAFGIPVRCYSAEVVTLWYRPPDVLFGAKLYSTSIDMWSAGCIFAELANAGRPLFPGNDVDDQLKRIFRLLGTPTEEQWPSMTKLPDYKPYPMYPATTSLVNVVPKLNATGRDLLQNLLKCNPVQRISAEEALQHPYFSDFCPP
T2 sequence (Q15078 108-307 partner limits assumed): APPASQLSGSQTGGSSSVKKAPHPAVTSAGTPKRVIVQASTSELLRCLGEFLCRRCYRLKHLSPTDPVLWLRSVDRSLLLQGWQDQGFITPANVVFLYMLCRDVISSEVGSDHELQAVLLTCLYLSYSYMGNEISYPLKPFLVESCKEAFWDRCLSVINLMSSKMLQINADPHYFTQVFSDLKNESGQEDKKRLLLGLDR
T1 sequence (P49841 2-419): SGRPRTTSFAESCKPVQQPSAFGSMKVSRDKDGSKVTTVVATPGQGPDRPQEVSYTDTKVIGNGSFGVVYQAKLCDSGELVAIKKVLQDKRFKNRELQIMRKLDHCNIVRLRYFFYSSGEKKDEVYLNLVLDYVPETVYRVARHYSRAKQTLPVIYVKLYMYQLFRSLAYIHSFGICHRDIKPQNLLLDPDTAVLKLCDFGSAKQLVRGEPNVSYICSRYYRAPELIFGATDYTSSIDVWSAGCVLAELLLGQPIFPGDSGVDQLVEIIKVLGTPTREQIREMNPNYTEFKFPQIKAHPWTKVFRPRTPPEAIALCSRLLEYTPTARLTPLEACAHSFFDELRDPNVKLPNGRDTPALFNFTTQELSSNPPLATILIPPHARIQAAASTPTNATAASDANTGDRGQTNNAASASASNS

Turning to `CCCn1cc2c(C3C(=O)Nc4ccc(Br)cc43)nc(NCCNC)nc2n1` (stereo not shown) [Example 365, 5-Bromo-3-[6-(2-methylamino-ethylamino)-2-propyl-2H-pyrazolo [3,4-d]pyrimidin-4-yl]-1,3-dihydro-indol-2-one hydrochloride salt], the pIC50 (in general, the IC50 on a negative log10 scale, so that one unit is a factor of ten) at His6-GSK-3β (class symbols) is greater than 6.52; against CDK5/GST-p25, 5.52 to 6.52.
For `O=C1Nc2ccc(Cl)cc2C1c1nc(NCc2ccncc2)nc2c1CCC2` (stereo not shown) [Example 326, 5-Chloro-3-{2-[(pyridin-4-ylmethyl)-amino]-6,7-dihydro-5H-cyclopentapyrimidin-4-yl}-1,3-dihydro-indol-2-one] the same measures were 5.52 to 6.52 and less than 5.00.
As to `N#Cc1ccc2c(c1)C(c1nc(N3CCCCC3)nc3nn(C4CCCC4)cc13)C(=O)N2` (stereo not shown) [Example 131, 3-(2-cyclopentyl-6-piperidin-1-yl-2H-pyrazolo[3,4-d]pyrimidin-4-yl)-2-oxo-2,3-dihydro-1H-indole-5-carbonitrile], the pIC50 at His6-GSK-3β (class symbols) is greater than 6.52; at CDK5/GST-p25, less than 5.00.
For `O=C1Nc2ccc(Cl)cc2C1c1nc(Cl)nc2c1CCC2` (stereo not shown) [Example 316, 5-Chloro-3-(2-chloro-6,7-dihydro-5H-cyclopentapyrimidin-4-yl)-1,3-dihydro-inodol-2-one] the same measures were less than 5.00 and less than 5.00.
Consider `N#Cc1ccc2c(c1)C(c1nc(Nc3ccc(F)nc3)nc3c1CCC3)C(=O)N2` (stereo not shown) [Example 351, 3-[2-(6-Fluoro-pyridin-3-ylamino)-6,7-dihydro-5H-cyclopentapyrimidin-4-yl]-2-oxo-2,3-dihydro-1H-indole-5-carbonitrile], for which the pIC50 at His6-GSK-3β (class symbols) and on CDK5/GST-p25 was less than 5.00 each time.
`CN1CCN(c2ccc(Nc3nc(C4C(=O)Nc5ccc(C#N)cc54)c4cn(C5CCCC5)nc4n3)cn2)CC1` (stereo not shown) [Example 137, 3-{2-cyclopentyl-6-[6-(4-methyl-piperazin-1-yl)-pyridin-3-yl-amino]-2H-pyrazolo [3,4-d]pyrimidin-4-yl}-2-oxo-2,3-dihydro-1H-indole-5-carbonitrile]: the pIC50 on His6-GSK-3β (class symbols) was greater than 6.52; against CDK5/GST-p25 it was less than 5.00.
With `CNCCCn1cc2c(C3C(=O)Nc4ccc(Br)cc43)ncnc2n1` (stereo not shown) [Example 90, 3-[2-(3-methylamino-propyl)-2H-pyrazolo[3,4-d]pyrimidin-4-yl]-5-bromo-1,3-dihydro-indol-2-one], the pIC50 on His6-GSK-3β (class symbols) was 5.52 to 6.52; against CDK5/GST-p25, greater than 6.52.
As to `O=C1Nc2ccc(Br)cc2C1c1nc(Cl)nc2nn(C3CCCC3)cc12` (stereo not shown) [Example 182, 5-Bromo-3-(6-chloro-2-cyclopentyl-2-H-pyrazolo[3,4-d]pyrimidin-4-yl)-1,3-dihydro-indol-2-one], the pIC50 is less than 5.52 at His6-GSK-3β (numeric bounds) and less than 5.00 at CDK5/GST-p25.
With `O=C1Nc2ccc(Br)cc2C1c1nc(NCCc2cccnc2)nc2nn(C3CCCC3)cc12` (stereo not shown) [Example 181, 5-Bromo-3-[2-cyclopentyl-6-(2-pyridin-3-yl-ethylamino)-2H-pyrazolo [3,4-d]pyrimidin-4-yl]-1,3-dihydro-1H-indol-2-one], the pIC50 at His6-GSK-3β (class symbols) is greater than 6.52. In addition, on CDK5/GST-p25 (@10 μM), the “CDK5 % @10 μM” value came out at 70% @10 μM.
As to `COCCn1cc2c(C3C(=O)Nc4ccc(Br)cc43)nc(NCCC3CCCNC3)nc2n1` (stereo not shown) [Example 228, 5-Bromo-3-[2-(2-methoxy-ethyl)-6-(2-piperidin-3-yl-ethylamino)-2H-pyrazolo[3,4-d]pyrimidin-4-yl]-1,3-dihydro-indol-2-one], the negative-log IC50 (pIC50) on His6-GSK-3β (class symbols) and at CDK5/GST-p25 was greater than 6.52 throughout.
On to `CNCCNc1nc(C2C(=O)Nc3ccc(Br)cc32)c2cn(C)nc2n1` (stereo not shown) [Example 360, 5-Bromo-3-[2-methyl-6-(2-methylamino-ethylamino)-2H-pyrazolo[3,4-d]pyrimidin-4-yl]-1,3-dihydro-indol-2-one hydrochloride salt], for which the pIC50 at His6-GSK-3β (class symbols) and at CDK5/GST-p25 was 5.52 to 6.52 each time.

For the origin of these results see patent US8354414B2, “Substituted bicyclic pyrimidines” (Cephalon, Inc, priority 2006, dated 2013).
